Test results taken from ChEMBL document CHEMBL1770098, “Pyridine-derived thiosemicarbazones and their tin(IV) complexes with antifungal activity against Candida spp” (2011).
≈ marks a conversion by molar mass, not a printed value.

Columns and labels:
Assay type in all cases: functional
Candida albicans = experiment: Antifungal activity against Candida albicans ATCC 18804 after 24 hrs; settings: ATCC 18804, 24 h
Pichia kudriavzevii = experiment: Antifungal activity against Candida krusei ATCC 200298 after 24 hrs; settings: ATCC 200298, 24 h
Candida parapsilosis = experiment: Antifungal activity against Candida parapsilosis […] after 24 hrs; settings: Lodderomyces parapsilosis
Nakaseomyces glabratus = experiment: Antifungal activity against Candida glabrata ATCC 90030 after 24 hrs; settings: ATCC 90030, 24 h

| Structure (SMILES) | MIC (Candida albicans) [µM] | MIC (Pichia kudriavzevii) [µM] | MIC (Candida parapsilosis) [µM] | MIC (Nakaseomyces glabratus) [µM] |
| --- | --- | --- | --- | --- |
| C/C(=N\NC(=S)Nc1ccccc1Cl)c1ccccn1 | 13.1 (≈ 4 µg/mL) | 13.1 (≈ 4 µg/mL) | 26.2 (≈ 8 µg/mL) | 13.1 (≈ 4 µg/mL) |
| C/C(=N\NC(=S)Nc1ccccc1[N+](=O)[O-])c1ccccn1 | 6.34 (≈ 2 µg/mL) | 6.34 (≈ 2 µg/mL) | 6.34 (≈ 2 µg/mL) | 6.34 (≈ 2 µg/mL) |
| C/C(=N\NC(=S)Nc1ccccc1F)c1ccccn1 | 13.9 (≈ 4 µg/mL) | 13.9 (≈ 4 µg/mL) | 27.7 (≈ 8 µg/mL) | 6.94 (≈ 2 µg/mL) |
| S=C(N/N=C(\c1ccccc1)c1ccccn1)Nc1ccccc1Cl | 21.8 (≈ 8 µg/mL) | 21.8 (≈ 8 µg/mL) | 43.6 (≈ 16 µg/mL) | 21.8 (≈ 8 µg/mL) |
| Fc1ccccc1NC(=S)N/N=C(\c1ccccc1)c1ccccn1 | 45.7 (≈ 16 µg/mL) | 45.7 (≈ 16 µg/mL) | 45.7 (≈ 16 µg/mL) | 11.4 (≈ 4 µg/mL) |
| O=[N+]([O-])c1ccccc1NC(=S)N/N=C(\c1ccccc1)c1ccccn1 | 21.2 (≈ 8 µg/mL) | 21.2 (≈ 8 µg/mL) | 42.4 (≈ 16 µg/mL) | 21.2 (≈ 8 µg/mL) |
| OC(Cn1cncn1)(Cn1cncn1)c1ccc(F)cc1F [FLUCONAZOLE] | 6.53 (≈ 2 µg/mL) | 104 (≈ 32 µg/mL) | 6.53 (≈ 2 µg/mL) | 6.53 (≈ 2 µg/mL) |
